According to patent US20240262801A1, “COMPOUNDS HAVING 5-(2-FLUORO-6-HYDROXYPHENYL)-1,2,5-THIADIAZOLIDIN-3-ONE 1,1-DIOXIDE AS INHIBITORS OF PROTEIN KINASE PHOSPHATASE ENZYMES” (Ness Therapeutics, Inc., priority 2021, published 2024):
Like-named read-outs stand apart in the source and are kept apart here.

What was measured:
[1] = target: T1, GST-tagged PTPN2 protein (Homo sapiens, UniProt P17706); assay: Primary assay of PTPN2 enzymatic activity inhibition (DiFMUP fluorescence); type: biochemical; conditions: DiFMUP substrate 2 μM, 60 min at RT
T1 construct: purchased ActiveMotif 31592
T1 sequence (P17706 with tags, fused parts or gaps): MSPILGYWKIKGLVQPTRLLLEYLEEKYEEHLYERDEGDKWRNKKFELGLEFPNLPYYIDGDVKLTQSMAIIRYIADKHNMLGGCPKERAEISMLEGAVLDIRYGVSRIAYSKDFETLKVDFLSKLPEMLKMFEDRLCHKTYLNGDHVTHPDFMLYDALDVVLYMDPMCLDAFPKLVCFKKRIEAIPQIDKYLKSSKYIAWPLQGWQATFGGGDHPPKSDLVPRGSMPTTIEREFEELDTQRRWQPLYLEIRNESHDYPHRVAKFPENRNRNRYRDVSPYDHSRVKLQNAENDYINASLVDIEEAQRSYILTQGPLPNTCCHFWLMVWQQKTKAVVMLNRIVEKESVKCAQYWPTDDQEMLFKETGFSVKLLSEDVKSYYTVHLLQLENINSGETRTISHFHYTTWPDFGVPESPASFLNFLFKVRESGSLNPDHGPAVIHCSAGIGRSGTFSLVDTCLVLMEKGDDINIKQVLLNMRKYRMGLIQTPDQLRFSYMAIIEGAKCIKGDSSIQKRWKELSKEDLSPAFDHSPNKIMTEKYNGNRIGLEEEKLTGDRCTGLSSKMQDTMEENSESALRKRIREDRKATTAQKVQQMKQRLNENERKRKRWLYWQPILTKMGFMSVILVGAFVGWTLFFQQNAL
Protocol: Compound activity was determined using GST-tagged PTPN2 protein (Cat #31592, ActiveMotif) (SEQ ID NO: 1) in an in vitro enzymatic reaction. The enzymatic reaction was carried out in assay buffer (50 mM HEPES Na salt pH 7.2-7.4, 2 mM EDTA, 100 mM NaCl, 52 ng/μL BSA, and 6 mM DTT). The compounds were dispensed on a 384 well Diamond Well Plate (Axigen, Cat #P-384-120SQ-C-S) using the Biomek FX liquid handling system at 100× solutions of compounds in DMSO. 2× PTPN2 (final concentration 0.004 ng/μL) was prepared in 1× Assay buffer and 25 μL of mixture per well was added into Reaction plate (Optiplate, black, Perkin Elmer, Cat #6007270). Add 25 μL of 1× buffer to Ctrl- (Substrate w/o PTPN2) wells followed by centrifugation at 100 g for 1 min. Next step the Compounds were added to Reaction plate using Biomek station via following steps: 3 ul of 100× compounds (in DMSO) were mixed with 27 μL of Assay Buffer, then 5 μL of this mixture was added to Reaction plate with 25 μL of PTPN2 Mix. Plates were centrifuged for 1 min at 100 g and incubated for another 10 minutes at room temperature. Finally, 20 μL of 2.5× Substrate (DiFUMP, Invitrogen™ Cat #D6567) mix was added into appropriate wells of Reaction plate to the final concentration of 2 μM, plate was centrifuged at 100 g for 1 min followed by incubation at RT for 60 min, and the Fluorescence Intensity was measured using a Microplate Reader (ClarioStar Plus, excitation 360 nm, emission 450 nm). The % inhibition was then used to calculate the IC50 values. The IC50 values are shown in Table A1, wherein “A” corresponds to IC50<5.0 nm, “B” corresponds to 5.0 nm≤IC50<10.0 nm, “C” corresponds to 10.0 nm≤IC50<50.0 nm, “D” corresponds to 50.0 nm≤IC50<100.0 nm, and “E” corresponds to 100.0 nm≤IC50<500.0 nm, and “F” corresponds to 500.0 nm≤IC50.

[2] = system: B16F10 mouse melanoma cells; assay: Tumor cells B16F10 cellular growth IFNγ-induced inhibition assay (CellTiter-Glo); type: cell-based; conditions: for IC50: B16-F10, 72 h, 3 days incubation; for inhibition at 100 µM: B16-F10, B16F10, 100 μM compound; for inhibition at 40 µM: B16-F10, B16F10, 40 μM compound
Protocol: B16F10 mouse melanoma cells (ATCC Cat #CRL-6475) were seeded at a density of 500 cells per well in a 384-well clear bottom plate (Corning Cat #3712, Corning, N.Y.) in 40 μL total volume of DMEM+10% FBS (PanEco Cat #C420, Russia and Sigma Cat #F4135, St. Louis, Mo.). Cells were allowed to adhere overnight at 37° C., 5% CO2. On the following day, 250× solutions of compounds in DMSO (Sigma Cat #D2650) were prepared into […] plate (Diamond Well Plate, Axigen, Cat #P-384-120SQ-C-S) (final concentration of 1×) and DMSO only controls were included. Dilution Plate (Diamond Well Plate (Axigen, Cat #P-384-120SQ-C-S) was prepared by adding 49 μL of culture medium per well: half of the plate with culture medium only, half with culture medium+IFNγ (5 ng/ml). A 1 μL aliquot of 250× compounds ([…] plate) was added to 49 μL of culture medium (Dilution plate), then a 10 μL aliqut of the mixture was transferred to Reaction plate with 40 μL of cells followed by centrifugation at 240 g for 1 min. After 3 days of incubation, 10 μL of CellTiter-Glo (Promega) was added to the cells, plates were centrifuged at 240 g for 1 min, and luminescence signal was measured. For each compound, the percent growth inhibition at every compound dose level was calculated relative to the “DMSO/with IFNγ” control and used to determine the IC50.

[3] = B16F10, + IFNγ, read-out: IC50 + IFNγ
[4] = B16F10, no IFNγ, read-out: IC50 no IFNγ
[5] = + IFNγ, read-out: % Growth Inhibition at 100 μM + IFNγ
[6] = no IFNγ, read-out: % Growth Inhibition at 100 μM no IFNγ
[7] = no IFNγ, read-out: % Growth Inhibition no IFNγ @ 40 μM

Row | SMILES | IC50 [1] | IC50 [2, 3] | IC50 [2, 4] | inhibition at 100 µM [2, 5] | inhibition at 100 µM [2, 6] | inhibition at 40 µM [2, 7] | inhibition at 40 µM ([2]; + IFNγ, read-out: % Growth Inhibition + IFNγ @ 40 μM)
1 | Cc1ccccc1S(=O)(=O)Nc1cc(O)c(N2CC(=O)NS2(=O)=O)c(F)c1 [Example 23, N-[4-(1,1-dioxido-4-oxo-1,2,5-thiadiazolidin-2-yl)-3-fluoro-5-hydroxyphenyl]-2-methylbenzenesulfonamide] | 0.05 to 0.1 µM | 50 to 100 µM | ≥ 100 µM | 50 to 75% | 10 to 50% | – | –
2 | COCCCNC(=O)Nc1cc(O)c(N2CC(=O)NS2(=O)=O)c(F)c1 [Example 58, 1-[4-(1,1-dioxido-4-oxo-1,2,5-thiadiazolidin-2-yl)-3-fluoro-5-hydroxyphenyl]-3-(3-methoxypropyl)urea] | 0.01 to 0.05 µM | 5 to 10 µM | ≥ 100 µM | 75 to 100% | 10 to 50% | – | –
3 | O=C1CN(c2c(O)cc(NC(=O)N[C@H]3CC[C@H](CO)CC3)cc2F)S(=O)(=O)N1 [Example 107, 1-[3-fluoro-5-hydroxy-4-(1,1,4-trioxo-1,2,5-thiadiazolidin-2-yl)phenyl]-3-[4-(hydroxymethyl)-cyclohexyl]urea] | < 0.005 µM | 5 to 10 µM | ≥ 100 µM | 50 to 75% | 10 to 50% | – | –
4 | O=C1CN(c2c(O)cc(NC(=O)NC3CCN(S(=O)(=O)Cc4ccccc4Cl)CC3)cc2F)S(=O)(=O)N1 [Example 45, 1-{1-[(2-chlorobenzyl)sulfonyl]piperidin-4-yl}-3-[4-(1,1-dioxido-4-oxo-1,2,5-thiadiazolidin-2-yl)-3-fluoro-5-hydroxyphenyl]urea] | 0.005 to 0.01 µM | ≥ 100 µM | ≥ 100 µM | 10 to 50% | 10 to 50% | – | –
5 | CC(C)CCNC(=O)Nc1cc(O)c(N2CC(=O)NS2(=O)=O)c(F)c1 [Example 62, 1-[4-(1,1-dioxido-4-oxo-1,2,5-thiadiazolidin-2-yl)-3-fluoro-5-hydroxyphenyl]-3-(3-methylbutyl)urea] | 0.005 to 0.01 µM | < 5 µM | ≥ 100 µM | 75 to 100% | 10 to 50% | – | –
6 | O=C1CN(c2c(O)cc(NC(=O)NC3CCNCC3)cc2F)S(=O)(=O)N1 [Example 99, 1-[3-fluoro-5-hydroxy-4-(1,1,4-trioxo-1,2,5-thiadiazolidin-2-yl)phenyl]-3-(4-piperidyl)urea] | 0.01 to 0.05 µM | 10 to 50 µM | ≥ 100 µM | 50 to 75% | 10 to 50% | – | –
7 | COc1ccc(NC(=O)Nc2cc(O)c(N3CC(=O)NS3(=O)=O)c(F)c2)cc1OC [Example 59, 1-(3,4-dimethoxyphenyl)-3-[4-(1,1-dioxido-4-oxo-1,2,5-thiadiazolidin-2-yl)-3-fluoro-5-hydroxyphenyl]urea] | < 0.005 µM | 10 to 50 µM | ≥ 100 µM | 50 to 75% | 10 to 50% | – | –
8 | COc1cccc(-c2cc(O)c(N3CC(=O)NS3(=O)=O)c(F)c2)c1 [Example 1, 5-(3-fluoro-5-hydroxy-3′-methoxybiphenyl-4-yl)-1,2,5-thiadiazolidin-3-one 1,1-dioxide] | 0.1 to 0.5 µM | ≥ 100 µM | ≥ 100 µM | 10 to 50% | 10 to 50% | – | –
9 | O=C1CN(c2c(O)cc(NS(=O)(=O)c3ccccc3)cc2F)S(=O)(=O)N1 [Example 17, N-[4-(1,1-dioxido-4-oxo-1,2,5-thiadiazolidin-2-yl)-3-fluoro-5-hydroxyphenyl]benzenesulfonamide] | 0.01 to 0.05 µM | 10 to 50 µM | 10 to 50 µM | – | – | 10 to 50% | –
10 | COc1ccc(C(=O)Nc2cc(O)c(N3CC(=O)NS3(=O)=O)c(F)c2)cc1 [Example 15, N-[4-(1,1-dioxido-4-oxo-1,2,5-thiadiazolidin-2-yl)-3-fluoro-5-hydroxyphenyl]-4-methoxybenzamide] | 0.1 to 0.5 µM | 10 to 50 µM | 10 to 50 µM | – | – | 10 to 50% | 10 to 50%
11 | O=C1CN(c2c(O)cc(NC(=O)N[C@H](CO)Cc3ccccc3)cc2F)S(=O)(=O)N1 [Example 109, 1-[(1S)-1-benzyl-2-hydroxy-ethyl]-3-[3-fluoro-5-hydroxy-4-(1,1,4-trioxo-1,2,5-thiadiazolidin-2-yl)phenyl]urea] | < 0.005 µM | 10 to 50 µM | ≥ 100 µM | 50 to 75% | 10 to 50% | – | –
12 | Cc1cccc(S(=O)(=O)Nc2cc(O)c(N3CC(=O)NS3(=O)=O)c(F)c2)c1 [Example 22, N-[4-(1,1-dioxido-4-oxo-1,2,5-thiadiazolidin-2-yl)-3-fluoro-5-hydroxyphenyl]-3-methylbenzenesulfonamide] | 0.01 to 0.05 µM | 10 to 50 µM | ≥ 100 µM | 50 to 75% | 10 to 50% | – | –
13 | O=C1CN(c2c(O)cc(NC(=O)c3ccccc3)cc2F)S(=O)(=O)N1 [Example 13, N-[4-(1,1-dioxido-4-oxo-1,2,5-thiadiazolidin-2-yl)-3-fluoro-5-hydroxyphenyl]benzamide] | 0.1 to 0.5 µM | ≥ 100 µM | ≥ 100 µM | 10 to 50% | 10 to 50% | – | –
14 | O=C1CN(c2c(O)cc(NC(=O)Nc3ccccc3)cc2F)S(=O)(=O)N1 [Example 35, 1-[4-(1,1-dioxido-4-oxo-1,2,5-thiadiazolidin-2-yl)-3-fluoro-5-hydroxyphenyl]-3-phenylurea] | 0.005 to 0.01 µM | 10 to 50 µM | ≥ 100 µM | 75 to 100% | 10 to 50% | – | –
15 | CC(C)CNC(=O)C12CC(NC(=O)Nc3cc(O)c(N4CC(=O)NS4(=O)=O)c(F)c3)(C1)C2 [Example 112, 3-[[3-fluoro-5-hydroxy-4-(1,1,4-trioxo-1,2,5-thiadiazolidin-2-yl)phenyl]carbamoylamino]-N-isobutyl-bicyclo[1.1.1]pentane-1-carboxamide] | < 0.005 µM | 50 to 100 µM | ≥ 100 µM | 10 to 50% | 10 to 50% | – | –
16 | O=C1CN(c2c(O)cc(NC(=O)NC3CCCNC3)cc2F)S(=O)(=O)N1 (centres unmarked) [Example 104, 1-[3-fluoro-5-hydroxy-4-(1,1,4-trioxo-1,2,5-thiadiazolidin-2-yl)phenyl]-3-(3-piperidyl)urea] | < 0.005 µM | 5 to 10 µM | ≥ 100 µM | 75 to 100% | 10 to 50% | – | –
17 | O=C1CN(c2c(O)cc(NC(=O)Nc3ccccc3C(F)(F)F)cc2F)S(=O)(=O)N1 [Example 55, 1-[4-(1,1-dioxido-4-oxo-1,2,5-thiadiazolidin-2-yl)-3-fluoro-5-hydroxyphenyl]-3-[2-(trifluoromethyl)phenyl]urea] | 0.005 to 0.01 µM | ≥ 100 µM | ≥ 100 µM | 10 to 50% | 10 to 50% | – | –
18 | Cc1c(S(=O)(=O)Nc2cc(O)c(N3CC(=O)NS3(=O)=O)c(F)c2)cnn1C(F)F [Example 27, 1-(difluoromethyl)-N-[4-(1,1-dioxido-4-oxo-1,2,5-thiadiazolidin-2-yl)-3-fluoro-5-hydroxyphenyl]-5-methyl-1H-pyrazole-4-sulfonamide] | 0.05 to 0.1 µM | ≥ 100 µM | ≥ 100 µM | 10 to 50% | 10 to 50% | – | –
